Assay results published in US7300929B2, “Mediators of hedgehog signaling pathways, compositions and uses related thereto” (Curis, Inc., priority 1999, dated 2007).

How the values were obtained:
[1] = system: Patched pathway / ultraviolet radiation-induced BCC tumors; assay: Adult BCC mouse skin punch assay; assay type: cell-based; details: positive control, 6 days, vs vehicle
Description: Ptc heterozygous transgenic mice were irradiated 3 times weekly for 6 months, during which time many small, and often microscopic, BCC tumors developed. Four-mm diameter skin punch explants, presumably containing BCC structures, were cultured for 6 days in the presence of vehicle, the positive control (jervine), or 5 μM D. At the end of the experiment, the explants were analyzed by X-gal staining to detect the level of Patched pathway activity, by histology to determine the effect of treatment on the morphology of ultraviolet radiation-induced BCCs, and by quantifying the level of gli-1 mRNA expression to characterize the extent of pathway inhibition.

[2] = system: Patched pathway in ptc-null cells; assay: Ptc-null assay (gli-1 mRNA by RT-PCR and real-time PCR); assay type: cell-based, mouse; details: 3 days, 5 μM
Description: […] Total ribonucleic acid (RNA) was isolated from the cells and used for reverse transcriptase-polymerase chain reaction (RT-PCR). […] The gli-1 and actin mRNA samples were then loaded on 1.5% agarose gel and were detected by staining with ethidium bromide. The same samples were analyzed by the quantitative real-time polymerase chain reaction method to quantify the levels of gli-1 mRNA.

SMILES: CC1=C2C(=O)[C@H]3[C@@H](CC=C4C[C@@H](O)CC[C@@]43C)[C@@H]2CC[C@]12O[C@@H]1C[C@H](C)CN[C@H]1[C@H]2C [jervine]
- number and size of BCC structures (X-gal staining) [1]: greatly decreased
- gli-1 mRNA levels (quantitative real-time PCR) [2]: downregulated
- expression of gli-1 mRNA (RT-PCR, agarose gel) ([2]; vs vehicle): significantly decreased
